Measurements reported in PMC6376265, “A sequence conserved between CD5 and CD6 binds an FERM domain and exerts a restraint on T‐cell activation” (Immunology, 2018).
Like-named read-outs stand apart in the source and are kept apart here. Values belong to the molecule of their own block, whether it stands above or below them. Square brackets hold non-standard residues; d marks the D form. Ends that are not written are not given here. Peptide text beside a SMILES is read from it. * marks the point of attachment. Biotin = O=C1N[C@H]2[C@H](CS[C@H]2CCCCC(=O)*)N1; pY = N[C@@H](Cc1ccc(OP(=O)(O)O)cc1)C(=O)O; pS = N[C@@H](COP(=O)(O)O)C(=O)O

Assays:
radixin FERM domain = molecular target: T1, radixin FERM domain (Mus musculus, UniProt P26043); test: Surface plasmon resonance, radixin FERM domain injected over immobilized peptides; assay type: binding; settings: 37°; for Binding of radixin FERM domain (in words): non-phosphorylated peptides, Fig. 1a, b; for Kd: equilibrium binding
T1 construct: mouse cDNA encoding amino acid residues 1–310, which are 100% identical between mouse and human; GST (cleaved yes); made in house; host or cells: E. coli Rosetta (DE3) pLysS
T1 sequence (P26043 1-310): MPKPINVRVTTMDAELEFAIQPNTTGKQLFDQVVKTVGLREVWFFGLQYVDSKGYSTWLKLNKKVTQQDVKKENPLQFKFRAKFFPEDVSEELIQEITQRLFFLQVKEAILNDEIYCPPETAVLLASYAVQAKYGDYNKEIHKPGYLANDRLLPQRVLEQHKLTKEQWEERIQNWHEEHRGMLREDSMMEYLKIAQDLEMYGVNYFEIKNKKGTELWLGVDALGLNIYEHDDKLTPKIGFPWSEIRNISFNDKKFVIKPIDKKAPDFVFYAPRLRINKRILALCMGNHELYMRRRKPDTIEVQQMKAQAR
Source text: (§1) Peptides representing human sequences and biotinylated at the N terminus were obtained from Peptide Protein Research Ltd (Hampshire, UK): CD5 pSDpSDpY, PDNSpSDpSDpYDLHGAQRL; CD5 SDSDY, PDNSSDSDYDLHGAQRL, CD6 pSDpSDpY, GpSDpSDpYEHYDFSAQ; CD6 SDSDY: GSDSDYEHYDFSAQ; control peptide (CD5), HVDNEYSQPPRNS; ICAM‐2 (NP_001093259 FERM binding site (amino acids 251–275): […].16
Recombinant GST‐tagged FERM domain of radixin constructed from mouse cDNA encoding amino acid residues 1–310, which are 100% identical between mouse and human in the pET49b(+) vector was kindly provided by Toshio Hakoshima (Nara Institute of Science and Technology, Japan).16 Radixin FERM was expressed in Rosetta (DE3) pLysS competent cells (Novagen, Madison, WI) and affinity purified using Glutathione Sepharose 4B (GE Healthcare, Chicago, IL). The GST tag was cleaved with HRV 3C protease (Novagen). Cleaved radixin FERM domains were then further purified using size exclusion chromatography.
For surface plasmon resonance analysis, CD5 pSDpSDpY, CD5 SDSDY, CD6 pSDpSDpY and CD6 SDSDY and ICAM‐2 peptides were immobilized on streptavidin‐coated CM5 chips in a BIAcore 3000 machine. Radixin FERM was injected over the immobilized peptides at 37°. Background signals of radixin FERM over a streptavidin‐coated flow cell were subtracted and equilibrium binding data were fitted using a 1 : 1 Langmuir binding model using GRAPHPAD PRISM 7 software.

[1] = system: ERM proteins and NHE‐RF 1 and 2; test: Pulldown from Jurkat T-cell lysates with immobilized peptides and mass spectrometry: five ERM and NHE-RF proteins together; assay type: binding
Source text: as §1
Pulldowns and mass spectrometry have been described elsewhere.6 Briefly, peptides CD5 pSDpSDpY, CD6 pSDpSDpY or a control peptide derived from a region around a more proximal cytoplasmic tyrosine of CD5 were immobilized on magnetic beads and used to isolate interacting proteins from Jurkat T‐cell lysates. Interacting proteins were processed, then digested on a filter, and the peptides were loaded onto the Ultimate 300 RSLCnano high‐performance liquid chromatography (Dionex, Sunnyvale, CA) ‐tandem mass spectrometry Q Exactive Orbitrap machine using a 25 cm by 75 μm inner diameter picotip analytical column (New Objective, Woburn, MA) in the central proteomics facilities at the Sir William Dunn School of Pathology, University of Oxford. Spectra analysis was conducted using the MASCOT search engine.17

[2] = molecular target: T2, radixin FERM domain (amino acid residues 1-310) (mouse, UniProt P26043 1-310); test: SPR; biotinylated peptides immobilized on streptavidin-coated CM5 chips, BIAcore 3000; radixin FERM injected at 37°; streptavidin flow cell subtracted; equilibrium binding fitted with a 1:1 Langmuir model; settings: both partners purified
T2 construct: also called Recombinant monomeric radixin FERM; FERM domain of radixin; source: E. coli Rosetta (DE3) pLysS, purified (Glutathione Sepharose 4B, HRV 3C cleavage, size exclusion chromatography)
T2 sequence (P26043 1-310): as above

[3] = SPR BIAcore 3000, biotinylated peptides on streptavidin-coated CM5 chip, 1:1 Langmuir fit, CD5 and CD6: three experiments, read-out: KD

- Binding of radixin FERM domain (in words) (radixin FERM domain; SPR): weak and did not reach saturation
Molecule: PDNSSDSDYDLHGAQRL [CD5 SDSDY]

Molecule: HVDNEYSQPPRNS [control peptide, control peptide derived from a region around a more proximal cytoplasmic tyrosine of CD5]
- Isolation of the five proteins (in words) [1]: not identified

- Binding of radixin FERM domain (in words) (radixin FERM domain; SPR): weak and did not reach saturation
Molecule: GSDSDYEHYDFSAQ [CD6 SDSDY]

- Kd (radixin FERM domain; [3]): 500 nM
Molecule: C[C@H](NC(=O)[C@H](CO)NC(=O)[C@H](Cc1ccccc1)NC(=O)[C@H](CC(=O)O)NC(=O)[C@H](Cc1ccc(O)cc1)NC(=O)[C@H](Cc1c[nH]cn1)NC(=O)[C@H](CCC(=O)O)NC(=O)[C@H](Cc1ccc(OP(=O)(O)O)cc1)NC(=O)[C@H](CC(=O)O)NC(=O)[C@H](COP(=O)(O)O)NC(=O)[C@H](CC(=O)O)NC(=O)[C@H](COP(=O)(O)O)NC(=O)CN)C(=O)N[C@@H](CCC(N)=O)C(=O)O [CD6 pSDpSDpY] (H-G[pS]D[pS]D[pY]EHYDFSAQ-OH)

- Kd (radixin FERM domain; [3]): ≥ 200 nM
Molecule: CSCC[C@H](NC(=O)[C@H](CCCNC(=N)N)NC(=O)[C@H](CCC(N)=O)NC(=O)[C@H](CCC(N)=O)NC(=O)[C@H](CCCNC(=N)N)NC(=O)[C@H](CC(C)C)NC(=O)[C@H](Cc1c[nH]cn1)NC(=O)CCCC[C@@H]1SC[C@@H]2NC(=O)N[C@@H]21)C(=O)NCC(=O)N[C@H](C(=O)N[C@@H](Cc1ccc(O)cc1)C(=O)NCC(=O)N[C@H](C(=O)N[C@@H](CCCNC(=N)N)C(=O)N[C@@H](C)C(=O)N[C@@H](C)C(=O)N[C@@H](Cc1c[nH]c2ccccc12)C(=O)N[C@@H](CCCNC(=N)N)C(=O)N[C@@H](CCCNC(=N)N)C(=O)N[C@@H](CC(C)C)C(=O)N1CCC[C@H]1C(=O)N[C@@H](CCC(N)=O)C(=O)N[C@@H](C)C(=O)N[C@@H](Cc1ccccc1)C(=O)N[C@@H](CCCNC(=N)N)C(=O)N1CCC[C@H]1C(=O)O)C(C)C)[C@@H](C)O [ICAM-2, reference compound] (Biotin-HLRQQRMGTYGVRAAWRRLPQAFRP-OH; N-terminus and C-terminus assumed)

- Kd (radixin FERM domain; [3]): 1000 to 2000 nM
- Kd (radixin FERM domain; SPR, Fig. 1 panel c, peptides compared with ICAM-2, read-out: KD (Fig. 1c)): 1000 nM
Molecule: CC(C)C[C@H](NC(=O)[C@H](CCCNC(=N)N)NC(=O)[C@H](CCC(N)=O)NC(=O)[C@H](C)NC(=O)CNC(=O)[C@H](Cc1c[nH]cn1)NC(=O)[C@H](CC(C)C)NC(=O)[C@H](CC(=O)O)NC(=O)[C@H](Cc1ccc(OP(=O)(O)O)cc1)NC(=O)[C@H](CC(=O)O)NC(=O)[C@H](COP(=O)(O)O)NC(=O)[C@H](CC(=O)O)NC(=O)[C@H](COP(=O)(O)O)NC(=O)[C@H](CO)NC(=O)[C@H](CC(N)=O)NC(=O)[C@H](CC(=O)O)NC(=O)[C@@H]1CCCN1)C(=O)O [CD5 pSDpSDpY] (H-PDNS[pS]D[pS]D[pY]DLHGAQRL-OH)

- Kd [2]: 500 to 2000 nM
B1: CD6 pSDpSDpY peptide (peptide)
peptide: Biotin-G[pS]D[pS]D[pY]EHYDFSAQ
notes: also called phosphorylated CD6 SDSDY peptide; source: synthetic peptide; bought: Peptide Protein Research Ltd
